Measurements as given in patent US11104660B2, “PDE4D inhibitors” (TETRA DISCOVERY PARTNERS, INC., priority 2019, dated 2021).
Like-named read-outs stand apart in the source and are kept apart here.

Columns and labels:
[1] = Plasma free fraction of Compound A (spiked -10 min plasma samples); type: in vitro ADME, cynomolgus non-human primates (Macaca fascicularis); details: cynomolgus monkey, read-out: fp (%) Plasma free fraction
Experimental: (§1) A dynamic 90 (Subject 1) or 120 (Subject 2) minute PET scan acquisition was initiated at the start of Compound A injection, administered over 3 minutes via an infusion pump targeting an injected activity of 5 mCi. Relative to time of Compound A injection, arterial blood samples were collected in K2EDTA at −10, 0.75, 1.5, 2.25, 3, 4, 5, 10, 15, 30, 45, 60, 90 and 120 min. For each sample, an aliquot (200 uL) was gamma counted for radioactivity concentration determination, then processed to plasma. For −10, 5, 15, 30, 60, 90, 120 min plasma samples, radio HPLC was performed for determination of parent fraction of Compound A, and −10 min samples spiked with Compound A were used for stability analysis and determination of plasma free fraction. Aliquots (100 uL) of plasma samples collected at −10, 5, 15, 30, 60, 90, 120 min were frozen for subsequent determination of drug concentration levels.

[2] = tested on: PDE4D; assay: PET imaging of 11C-labeled Compound A in non-human primate brain (VT, uptake); type: in vivo, cynomolgus non-human primates (Macaca fascicularis); details: for VT (volume of distribution): 90 min
Experimental: The regional distribution and pharmacokinetics of ^11C-labeled compounds as described herein were evaluated on non-human primates via PET imaging.
(§2) Two male non-naïve cynomolgus non-human primates (Macaca fascicularis) (“Subject 1” and “Subject 2”) were utilized in this study (7.0 and 5.5 kg). Subjects had previously undergone surgery for placement of arterial access ports for blood collection from the iliac artery. Each subject underwent a brain MR in a Philips 1.5T Intera scanner using a 3D T1 FFE sequence for subsequent registration with PET and application of a cynomolgus brain region of interest atlas for determination of regional time-activity curves. PET scans were conducted in each subject under baseline condition (i.e., Compound A, only) and 15 minutes after a 10 minute infusion of Compound B at 3 mg/kg (i.e. blocking condition). Compound B is a known PDE4D ligand, alternatively referred to as BPN14770.
PET scans were conducted with a Siemens Focus 220 microPET scanner. Subjects were anesthetized with ketamine 10 mg/kg IM approximately 45 minutes prior to Compound A injection. Atropine sulfate 0.05 mg/kg IM was administered approximately 35 minutes prior to Compound A injection. Subjects were intubated and maintained on isoflurane (2-2.5%) and oxygen (2 L/min). Indwelling catheters were placed in the saphenous veins for drug infusion, tracer injection and fluids (LRS 10 mL/kg/hr IV). Subjects were transported to the PET imaging bed, positioned, and monitored for body temperature, heart rate, expired CO2, respiration rate, and pulse O2.
as §1
At the conclusion of PET scan acquisition, an x-ray CT scan by an 8 slice NeuroLogica CereTom OTOscan of each Subject was collected of the head at 120 kVp, 4 mAs, slice thickness 0.625 mm and processed using filtered back projection. The CT scan was used for co-registration to PET for attenuation and scatter correction of the reconstructed PET scan. Listmode PET data were binned into 6×0.5 min, 3×1 min, 2×2 min and 22 ×5 min frames. Binned sinogram data were reconstructed by filtered backprojection.
Reconstructed PET images were analyzed using PMOD software. PET scans were transformed into MR template space via rigid PET-to-MR and affine+nonlinear MR-to-template registrations. Time-activity curves were generated from regions of interest (ROIs) defined on the MR template including the anterior cingulate, cerebellum, dorsolateral prefrontal cortex, entorhinal cortex, occipital cortex, striatum and thalamus. Peak uptake in the brain was between about 3.2% and 5.6% of the injected dose.
(§3) Volume of distribution (VT) (mL/cm^3) of Compound A was estimated with the 2-tissue compartment (2TC) model and Logan graphical analysis (LGA, t*=30), for baseline and blocking scans, using 90 min of data. VT at baseline and blocking in ROIs were used to compute occupancy of Compound B via the occupancy (Lassen) plot. Time stability of VT estimated from 2TC and LGA models were assessed for both animals from 90 min or 120 minutes of data for baseline and blocking scans.

[3] = tested on: PDE4D; assay: Occupancy of Compound B by PET with Compound A (Lassen plot); type: in vivo, cynomolgus non-human primates (Macaca fascicularis); details: Compound B 3 mg/kg infusion
From the text: as §2, §3

## [2H]C([2H])(c1cn[nH]c1)c1ccc(O[11CH3])c(-c2cccc([N+](=O)[O-])c2)n1 [Compound A]
[1]; Subject 1, baseline
  fraction unbound: 0.059
[1]; Subject 1, blocking (Compound B 3 mg/kg)
  fraction unbound: 0.059
[1]; Subject 2, baseline
  fraction unbound: 0.067
[1]; Subject 2, blocking (Compound B 3 mg/kg)
  fraction unbound: 0.047
[2]; Anterior Cingulate, Subject 1, 2TC, baseline
  VT (volume of distribution): 15.8 mL/cm^3
[2]; Anterior Cingulate, Subject 1, 2TC, blocking (Compound B 3 mg/kg)
  VT (volume of distribution): 8.8 mL/cm^3
[2]; Anterior Cingulate, Subject 1, LGA, baseline
  VT (volume of distribution): 13.8 mL/cm^3
[2]; Anterior Cingulate, Subject 1, LGA, blocking (Compound B 3 mg/kg)
  VT (volume of distribution): 8.9 mL/cm^3
[2]; Anterior Cingulate, Subject 2, 2TC, baseline
  VT (volume of distribution): 13.7 mL/cm^3
[2]; Anterior Cingulate, Subject 2, 2TC, blocking (Compound B 3 mg/kg)
  VT (volume of distribution): 10.6 mL/cm^3
[2]; Anterior Cingulate, Subject 2, LGA, baseline
  VT (volume of distribution): 14.6 mL/cm^3
[2]; Anterior Cingulate, Subject 2, LGA, blocking (Compound B 3 mg/kg)
  VT (volume of distribution): 10.4 mL/cm^3
[2]; Cerebellum, Subject 1, 2TC, baseline
  VT (volume of distribution): 11.5 mL/cm^3
[2]; Cerebellum, Subject 1, 2TC, blocking (Compound B 3 mg/kg)
  VT (volume of distribution): 7.6 mL/cm^3
[2]; Cerebellum, Subject 1, LGA, baseline
  VT (volume of distribution): 10.2 mL/cm^3
[2]; Cerebellum, Subject 1, LGA, blocking (Compound B 3 mg/kg)
  VT (volume of distribution): 7.7 mL/cm^3
[2]; Cerebellum, Subject 2, 2TC, baseline
  VT (volume of distribution): 8.6 mL/cm^3
[2]; Cerebellum, Subject 2, 2TC, blocking (Compound B 3 mg/kg)
  VT (volume of distribution): 9.6 mL/cm^3
[2]; Cerebellum, Subject 2, LGA, baseline
  VT (volume of distribution): 9.2 mL/cm^3
[2]; Cerebellum, Subject 2, LGA, blocking (Compound B 3 mg/kg)
  VT (volume of distribution): 9.7 mL/cm^3
[2]; Dorsolateral Frontal Cortex, Subject 1, 2TC, baseline
  VT (volume of distribution): 26.2 mL/cm^3
[2]; Dorsolateral Frontal Cortex, Subject 1, 2TC, blocking (Compound B 3 mg/kg)
  VT (volume of distribution): 10.2 mL/cm^3
[2]; Dorsolateral Frontal Cortex, Subject 1, LGA, baseline
  VT (volume of distribution): 22.9 mL/cm^3
[2]; Dorsolateral Frontal Cortex, Subject 1, LGA, blocking (Compound B 3 mg/kg)
  VT (volume of distribution): 10.1 mL/cm^3
[2]; Dorsolateral Frontal Cortex, Subject 2, 2TC, baseline
  VT (volume of distribution): 15.2 mL/cm^3
[2]; Dorsolateral Frontal Cortex, Subject 2, 2TC, blocking (Compound B 3 mg/kg)
  VT (volume of distribution): 12.3 mL/cm^3
[2]; Dorsolateral Frontal Cortex, Subject 2, LGA, baseline
  VT (volume of distribution): 15.5 mL/cm^3
[2]; Dorsolateral Frontal Cortex, Subject 2, LGA, blocking (Compound B 3 mg/kg)
  VT (volume of distribution): 10.6 mL/cm^3
[2]; Enthorinal Cortex, Subject 1, 2TC, baseline
  VT (volume of distribution): 14.6 mL/cm^3
[2]; Enthorinal Cortex, Subject 1, 2TC, blocking (Compound B 3 mg/kg)
  VT (volume of distribution): 8.1 mL/cm^3
[2]; Enthorinal Cortex, Subject 1, LGA, baseline
  VT (volume of distribution): 11.7 mL/cm^3
[2]; Enthorinal Cortex, Subject 1, LGA, blocking (Compound B 3 mg/kg)
  VT (volume of distribution): 7.4 mL/cm^3
[2]; Enthorinal Cortex, Subject 2, 2TC, baseline
  VT (volume of distribution): 10.8 mL/cm^3
[2]; Enthorinal Cortex, Subject 2, 2TC, blocking (Compound B 3 mg/kg)
  VT (volume of distribution): 10.1 mL/cm^3
[2]; Enthorinal Cortex, Subject 2, LGA, baseline
  VT (volume of distribution): 10.5 mL/cm^3
[2]; Enthorinal Cortex, Subject 2, LGA, blocking (Compound B 3 mg/kg)
  VT (volume of distribution): 7.8 mL/cm^3
[2]; Hippocampus, Subject 1, 2TC, baseline
  VT (volume of distribution): 30.3 mL/cm^3
[2]; Hippocampus, Subject 1, 2TC, blocking (Compound B 3 mg/kg)
  VT (volume of distribution): 7.4 mL/cm^3
[2]; Hippocampus, Subject 1, LGA, baseline
  VT (volume of distribution): 19.4 mL/cm^3
[2]; Hippocampus, Subject 1, LGA, blocking (Compound B 3 mg/kg)
  VT (volume of distribution): 7.5 mL/cm^3
[2]; Hippocampus, Subject 2, 2TC, baseline
  VT (volume of distribution): 19.8 mL/cm^3
[2]; Hippocampus, Subject 2, 2TC, blocking (Compound B 3 mg/kg)
  VT (volume of distribution): 11.1 mL/cm^3
[2]; Hippocampus, Subject 2, LGA, baseline
  VT (volume of distribution): 17.4 mL/cm^3
[2]; Hippocampus, Subject 2, LGA, blocking (Compound B 3 mg/kg)
  VT (volume of distribution): 11.0 mL/cm^3
[2]; Occipital Cortex, Subject 1, 2TC, baseline
  VT (volume of distribution): 17.8 mL/cm^3
[2]; Occipital Cortex, Subject 1, 2TC, blocking (Compound B 3 mg/kg)
  VT (volume of distribution): 8.4 mL/cm^3
[2]; Occipital Cortex, Subject 1, LGA, baseline
  VT (volume of distribution): 15.1 mL/cm^3
[2]; Occipital Cortex, Subject 1, LGA, blocking (Compound B 3 mg/kg)
  VT (volume of distribution): 8.0 mL/cm^3
[2]; Occipital Cortex, Subject 2, 2TC, baseline
  VT (volume of distribution): 12.9 mL/cm^3
[2]; Occipital Cortex, Subject 2, 2TC, blocking (Compound B 3 mg/kg)
  VT (volume of distribution): 10.6 mL/cm^3
[2]; Occipital Cortex, Subject 2, LGA, baseline
  VT (volume of distribution): 13.1 mL/cm^3
[2]; Occipital Cortex, Subject 2, LGA, blocking (Compound B 3 mg/kg)
  VT (volume of distribution): 10.0 mL/cm^3
[2]; PET image analysis
  Brain entry: readily entered the brain
  Regional uptake: consistent with the known distribution of Compound B
[2]; Striatum, Subject 1, 2TC, baseline
  VT (volume of distribution): 14.9 mL/cm^3
[2]; Striatum, Subject 1, 2TC, blocking (Compound B 3 mg/kg)
  VT (volume of distribution): 9.0 mL/cm^3
[2]; Striatum, Subject 1, LGA, baseline
  VT (volume of distribution): 13.9 mL/cm^3
[2]; Striatum, Subject 1, LGA, blocking (Compound B 3 mg/kg)
  VT (volume of distribution): 9.2 mL/cm^3
[2]; Striatum, Subject 2, 2TC, baseline
  VT (volume of distribution): 13.2 mL/cm^3
[2]; Striatum, Subject 2, 2TC, blocking (Compound B 3 mg/kg)
  VT (volume of distribution): 11.5 mL/cm^3
[2]; Striatum, Subject 2, LGA, baseline
  VT (volume of distribution): 13.4 mL/cm^3
[2]; Striatum, Subject 2, LGA, blocking (Compound B 3 mg/kg)
  VT (volume of distribution): 11.2 mL/cm^3
[2]; Thalamus, Subject 1, 2TC, baseline
  VT (volume of distribution): 17.6 mL/cm^3
[2]; Thalamus, Subject 1, 2TC, blocking (Compound B 3 mg/kg)
  VT (volume of distribution): 8.8 mL/cm^3
[2]; Thalamus, Subject 1, LGA, baseline
  VT (volume of distribution): 15.7 mL/cm^3
[2]; Thalamus, Subject 1, LGA, blocking (Compound B 3 mg/kg)
  VT (volume of distribution): 8.9 mL/cm^3
[2]; Thalamus, Subject 2, 2TC, baseline
  VT (volume of distribution): 11.6 mL/cm^3
[2]; Thalamus, Subject 2, 2TC, blocking (Compound B 3 mg/kg)
  VT (volume of distribution): 9.9 mL/cm^3
[2]; Thalamus, Subject 2, LGA, baseline
  VT (volume of distribution): 12.1 mL/cm^3
[2]; Thalamus, Subject 2, LGA, blocking (Compound B 3 mg/kg)
  VT (volume of distribution): 9.8 mL/cm^3
[2]; high dose of Compound B
  Change of Compound A in regions of high uptake on blockage of PDE4D: substantial reduction

## NC(=O)Cc1ccc(Nc2cc(C(F)(F)F)nc(-c3cccc(Cl)c3)n2)cc1 [Compound B]
[3]; Subject 1, 2TC
  Occupancy (%): 84%
[3]; Subject 1, LGA
  Occupancy (%): 88%
[3]; Subject 2, 2TC
  Occupancy (%): 82%
[3]; Subject 2, LGA
  Occupancy (%): 73%
